Source: patent US8691943B2, “Antimicrobial activity of chicken NK-2 peptide against apicomplexan protozoa” (priority 2011, dated 2014)
Where no end group is shown, it is not given here.

What was measured:
E. coli strain BMH71-18 = experiment: Bactericidal activity, broth microdilution assay (OD600); assay type: cell-based; conditions: peptides 0-40 μg/ml, 18 h
Experimental: Ampicillin (0-20 μg/ml), chicken NK-lysin peptides (0-40 μg/ml), or LB broth alone were added to cultures of the bacteria and incubated for 18 h at […]. Bacterial growth was determined by measuring OD600. X axis: Ampicillin concentrations.
To evaluate the bactericidal activity of NK-lysin peptides, the minimum inhibitory concentration (MIC) values of the purified recombinant protein against E. coil strain BMH71-18 were determined using a standardized broth microdilution assay. Ampicillin MIC values against the bacteria were determined in parallel as positive controls. The assays were performed in accordance with Clinical and Laboratory Standards Institute (CLSI; Formerly National Committee for Clinical Laboratory Standards [NCCLS]) guidelines (NCCLS. 1999. In: Methods for Determining Bacterial Activity of Antimicrobial Agents, NCCLC, Wayne, Pa.; NCCLS. 2002. In: Performance Standards for Antimicrobial Disk and Dilution Susceptibility Tests for Bacteria isolated from Animals; Approved Standard, 2nd ed. NCCLS, Wayne, Pa.). […] The wells were incubated for 18 h at 37° C. with ambient air circulation and without shaking, and the optical density (OD) of each well was measured on a Synergy HT™ multi-modal plate reader (Bio-Tec Instruments, Winooski, Vt.) at 600 nm. Background values, derived from non-inoculated wells containing broth alone, were subtracted from all readings.

[1] = test system: E. acervulina sporozoites; experiment: Eimeria acervulina sporozoite viability by trypan blue exclusion; assay type: cell-based; conditions: for effect on E. acervulina sporozoites viability: peptide 1 μM to 10 μM, 1 h, 3 h, 6 h at 41° C.
Experimental: FIG. 1 depicts the cytotoxic activity of chicken NK-lysin peptides for Eimeria acervulina sporozoites. E. acervulina sporozoites (2×10^6/ml) were incubated with control medium (HBSS) and 4 kinds of NK-lysin peptides (50 ug/ml, 100 ug/ml) for 3 h at 41° C. Sporozoite viability was assessed by trypan blue exclusion. Experiments were done in triplicate and considered significant at P<0.01.
For investigating the kinetics of NK-lysin peptides, E. acervulina sporozoites (1.5×10^6/ml) were incubated with NK-lysin-transfected COS7 cell supernatant (1:1 dilution) and various concentrations of melittin, cNK-2 or cNK-4 for 1 h, 3 h and 6 h at 41° C.; sporozoite viability was assessed by trypan blue exclusion. Experiments were performed in triplicate.
E. acervulina sporozoites were obtained by excystation of sporulated oocysts (Dulski and Turner. 1988. Avian Dis. 32:235-239). After breaking the oocyst membrane with 0.5 mm glass beads by Mini-beadbeater (BioSpec Products Inc., Bartlesville, Okla.), sporocysts were purified by isopycnic centrifugation on a Percoll gradient, washed in cold PBS, then treated with excystation solution (0.25% trypsin, 0.014 M taurocholic acid) for 30 min at 41° C. to release sporozoites. Excystation fluid was filtered and the sporozoites were washed 3 times with cold HBSS at 3,000 rpm for 10 min at 4° C. and resuspended to 1.0×10^6/ml in HBSS or 10% RPMI-1640 medium (Sigma) (Hong et al. 2008, supra). The sporozoites were incubated for 1 h, 3 h or 6 h at 41° C. with NK-lysin-transfected COS7 cell supernatants, melittin or synthetic chicken NK-lysin peptides, stained with trypan blue, and viable sporozoites were counted microscopically.
To compare the effect of four kinds of chicken NK-lysin peptides on Eimeria acervulina sporozoites, Eimeria sporozoites were incubated in 50 μg/ml and 100 ug/ml of each peptide for 3 h at 41° C., respectively. The HBSS was used as a control. […] In contrast, other peptides or control didn't kill Eimeria sporozoites (FIG. 1).
We next investigated the cytolytic activity of cNK-2 lytic peptide at increasing concentrations from 1 μM to 10 μM (FIG. 2). Melittin was used as a positive control to gain peptide-induced lysis in the absence of a phospholipid preference (Dempsey, C. E. 1990. Biochim. Biophys. Acta 1031:143-161).

E. tenella = experiment: Membrane permeabilization in E. tenella (data not shown); assay type: cell-based, Eimeria tenella
E. acervulina oocysts = experiment: In ovo plus intraperitoneal administration, protection against live oral E. acervulina challenge; assay type: in vivo, chickens
Experimental: FIGS. 6A and 6B depict the effect of cNK-2 treatment on body weight gains of birds infected with E. acervulina. At 1 day post-hatch, the chickens were infected with 500 sporulated oocysts of E. acervulina. Body weights were assessed at 5 days (FIG. 6A) and 10 days (FIG. 6B) post-infection. […] Each bar represents the mean±SEM values.
FIG. 7 depicts the effect of cNK-2 treatment on fecal oocyst shedding after oral challenge infection with live E. acervulina. At 1 day post-hatch, chickens were infected with 500 sporulated oocysts of E. acervulina and fecal oocysts were measured starting from day 5 to day 10 post-infection. Each bar represents the mean±SEM values.
For protection studies, broiler eggs at the 18-day-old embryo stage were allocated into 4 groups of 12 eggs each. An in ovo injector was used to inoculate eggs. The two control groups (Groups 1 and 2) received no NK lysin peptide and were mock inoculated with Hanks Balanced Salt Solution (HBSS) only. Two groups were inoculated with an in ova injection of cNK-2 peptide (ARS005-1; RD-27) at doses of 1 μg/embryo (Group 3) or 5 μg/embryo (Group 4). Three days later, birds were hatched and moved to brooder petersime units. Birds of Groups 3 and 4 were given a second injection with cNK-2 peptide at doses of 1 μg/bird and 5 μg/bird, respectively, using an intraperitoneal route as shown in Table 2. Birds that had been injected in ova with HBSS alone were not given an additional intraperitoneal injection (Table 2).
At one day post hatch, the birds from Groups 2, 3 and 4 were challenged orally with 500 sporulated, live Eimeria acervulina oocysts. Body weights were measured at 1 day post hatch, i.e., on the day of challenge (coccidia infection), at 5 days (FIG. 6A) and at 10 days (FIG. 6B) post-infection.
The effect of cNK-2 peptide on fecal oocyst shedding was also determined. […] Oocysts were collected between 5 and 10 days post infection and the number were counted using an established method (FIG. 7).

E. maxima = experiment: Membrane permeabilization in E. maxima (data not shown); assay type: cell-based, Eimeria maxima
C. parvum sporozoites = experiment: Cryptosporidum parvum sporozoite viability by two-component fluorescent dye exclusion assay; assay type: cell-based; conditions: 0.017, 0.17, 17 and 170 μg/ml; 2 hrs incubation; P<0.01 at 170 μg/ml, P<0.05 at the others
Experimental: FIG. 4 depicts the effect of NK lysine on Cryptosporidum parvum sporozoites. Freshly prepared C. parvum sporozoites were incubated with different doses of cNK-2 for […] and Cryptosporidia sporozoite viability was measured by a two-component fluorescent dye exclusion assay (LIVE/DEAD Reduced Biohazard Viability/Cytotoxicity Kits, Molecular Probes L-7013). The result is presented as the means plus standard deviations. Statistical analysis was performed by the paired t-test with the Statcel2 software. The level of significance was set at a P value of <0.05.
C. parvum sporozoites were prepared as described with modifications (Riggs and Perryman. 1987. Infect. Immun. 55:2081-2087). The C. parvum sporozoites were incubated with various concentrations of cNK-2 peptides or BSA and viability was assessed after 2 hrs of incubation. Viability of the sporozoites was measured by a two-component fluorescent dye exclusion assay (LIVE/DEAD Reduced Biohazard Viability/Cytotoxicity Kits, Molecular Probes L-7013). Results are presented as the means plus standard deviations. […] Statistical analysis was performed with the Statcel2 software.

N. caninum tachyzoites = experiment: Neospora caninum tachyzoite viability by trypan blue exclusion; assay type: cell-based; conditions: 41° C.; for tachyzoites killed: 1 h incubation; for tachyzoites killing: 3 h incubation
Experimental: FIG. 3 depicts the dose- and time-dependant effects of chicken cNK-2 peptide on Neospora caninum tachyzoites. For investigating kinetics of NK-lysin peptides, N. caninum tachyzoites (1.0×10^7/ml) were incubated with medium (control) and two different concentrations (5 uM and 10 uM) of cNK-2 for 1 h and 3 h at 41° C.; tachyzoite viability was assessed by trypan blue exclusion. Experiments were performed in triplicate. RPMI medium alone served as the negative control. Data were expressed as means±SEM. Differences were considered statistically significant at P<0.05 by the Duncan's multiple range test.
N. caninum tachyzoites were prepared as described with modifications (Tuo et al. 2005. Infect. Immun. 73:5093-5100). N. caninum (NC-1 isolate) tachyzoites were cultured on bovine monocytes (Lindsay and Dubey. 1989. J. Parasitol. 75:163-165) in RPMI 1640 medium supplemented with 2% fetal calf serum and 50 μg/ml gentamicin at 37° C. in a 95% air and 5% CO2 atmosphere. N. caninum tachyzoite-infected host cells were collected, passed through 20- and 27-gauge needles, and pelleted by centrifugation at 1,000×g for 20 min at 4° C. Tachyzoites were then purified by centrifugation over a 40% Percoll gradient at 2,000×g for 30 min at 4° C. The tachyzoite pellet was then resuspended in PBS (pH 7.4) and washed three times. Finally tachyzoites were resuspended to 5.0×10^6/ml in 10% RPMI-1640 medium (Sigma). The tachyzoites were incubated for 1 h or 3 h at 41° C. with synthetic chicken NK-lysin peptides (5 μM and 10 μM), stained with trypan blue, and viable tachyzoites were counted microscopically.

| Compound | antimicrobial activity against bacterial growth (E. coli strain BMH71-18) | effect on E. acervulina sporozoites viability [1] | membrane permeabilization (E. tenella) | body weights of infected birds compared with HBSS control birds (E. acervulina oocysts; 1 μg and 5 μg in ovo then intraperitoneal, 5 and 10 days post-infection, 500 oocysts, P<0.05) | fecal oocyst shedding (E. acervulina oocysts; dose of at least 5 μg, oocysts collected 5 to 10 days post infection, P<0.05) | protective effect against live oral challenge infection (E. acervulina oocysts; in ovo injections followed by intraperitoneal injections, 500 E. acervulina oocysts) | membrane permeabilization (E. maxima) | viability of C. parvum sporozoites (C. parvum sporozoites) | tachyzoites killed (N. caninum tachyzoites; 5 uM) | tachyzoites killing (N. caninum tachyzoites; 5 uM) [%] | tachyzoites killed (N. caninum tachyzoites; 10 uM) [%] | tachyzoites killing (N. caninum tachyzoites; 10 uM) [%] | killing of E. acervulina sporozoites (viability, trypan blue) ([1]; 50 μg/ml or 100 μg/ml peptide, 3 h at 41° C., HBSS control, P<0.01) | cytolytic effect on E. acervulina sporozoites ([1]; melittin positive control at 2.5 μM and 5 μM) |
| --- | --- | --- | --- | --- | --- | --- | --- | --- | --- | --- | --- | --- | --- | --- |
| cNK-4: synthetic chicken NK-lysin peptide (88-117), AINNALNKVCSTGRRQRSICKQLLKKLRQQ, SEQ ID NO. 4 (listed as Gallus gallus) | Neither chicken NK-lysin nor the NK-lysin peptides, cNK-2 and cNK-4, demonstrated antimicrobial activity | no effect | – | – | – | – | – | – | – | – | – | – | – | – |
| RRQRSICKQLLKKLRQQLSDALQNNDD-NH2 [cNK-2] | Neither chicken NK-lysin nor the NK-lysin peptides, cNK-2 and cNK-4, demonstrated antimicrobial activity | time- and dose-dependent effect | caused membrane permeabilization | significantly higher body weights | significant reduction of fecal oocyst shedding | significant protective effect | caused membrane permeabilization | significant decreases in the viability | about 46% | 71 | ~60 | 86 | significantly killed | – |
| CC[C@H](C)[C@H](NC(=O)CN)C(=O)NCC(=O)N[C@@H](C)C(=O)N[C@H](C(=O)N[C@@H](CC(C)C)C(=O)N[C@@H](CCCCN)C(=O)N[C@H](C(=O)N[C@@H](CC(C)C)C(=O)N[C@H](C(=O)N[C@H](C(=O)NCC(=O)N[C@@H](CC(C)C)C(=O)N1CCC[C@H]1C(=O)N[C@@H](C)C(=O)N[C@@H](CC(C)C)C(=O)N[C@H](C(=O)N[C@@H](CO)C(=O)N[C@@H](Cc1c[nH]c2ccccc12)C(=O)N[C@H](C(=O)N[C@@H](CCCCN)C(=O)N[C@@H](CCCNC(=N)N)C(=O)N[C@@H](CCCCN)C(=O)N[C@@H](CCCNC(=N)N)C(=O)N[C@@H](CCC(N)=O)C(=O)N[C@@H](CCC(N)=O)C(N)=O)[C@@H](C)CC)[C@@H](C)CC)[C@@H](C)O)[C@@H](C)O)C(C)C)C(C)C [Melittin, reference compound] | – | – | – | – | – | – | – | – | – | – | – | – | – | total disruption of the cellular membrane |
